The source made the active and inactive calls. No cut-off for these calls is given here.
Columns and labels:
[1] = target: T1, Dual specificity mitogen-activated protein kinase kinase 7 (Homo sapiens) (UniProt O14733); test: Binding affinity to MKK7 (unknown origin) expressed in HEK293 cells assessed as dissociation constant at <30 uM by kinomescan method; type: cell-based
T1 sequence (whole entry): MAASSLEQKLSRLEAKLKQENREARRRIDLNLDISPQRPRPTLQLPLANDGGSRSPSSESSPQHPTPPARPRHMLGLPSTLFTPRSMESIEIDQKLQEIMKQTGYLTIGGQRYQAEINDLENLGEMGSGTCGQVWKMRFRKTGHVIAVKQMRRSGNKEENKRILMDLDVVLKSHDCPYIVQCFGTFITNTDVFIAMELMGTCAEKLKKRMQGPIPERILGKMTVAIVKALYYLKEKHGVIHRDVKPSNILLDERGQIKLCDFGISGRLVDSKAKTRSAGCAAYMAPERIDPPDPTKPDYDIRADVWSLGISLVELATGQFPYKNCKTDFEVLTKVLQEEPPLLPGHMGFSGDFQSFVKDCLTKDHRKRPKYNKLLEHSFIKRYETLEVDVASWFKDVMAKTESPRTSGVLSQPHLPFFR

[2] = target: T2, M-phase inducer phosphatase 1 (Homo sapiens) (UniProt P30304); test: Inhibition of recombinant Cdc25A (unknown origin) at <50 uM using OMFP as substrate measured every 30 sec for 10 mins by fluorometric assay
T2 sequence (whole entry): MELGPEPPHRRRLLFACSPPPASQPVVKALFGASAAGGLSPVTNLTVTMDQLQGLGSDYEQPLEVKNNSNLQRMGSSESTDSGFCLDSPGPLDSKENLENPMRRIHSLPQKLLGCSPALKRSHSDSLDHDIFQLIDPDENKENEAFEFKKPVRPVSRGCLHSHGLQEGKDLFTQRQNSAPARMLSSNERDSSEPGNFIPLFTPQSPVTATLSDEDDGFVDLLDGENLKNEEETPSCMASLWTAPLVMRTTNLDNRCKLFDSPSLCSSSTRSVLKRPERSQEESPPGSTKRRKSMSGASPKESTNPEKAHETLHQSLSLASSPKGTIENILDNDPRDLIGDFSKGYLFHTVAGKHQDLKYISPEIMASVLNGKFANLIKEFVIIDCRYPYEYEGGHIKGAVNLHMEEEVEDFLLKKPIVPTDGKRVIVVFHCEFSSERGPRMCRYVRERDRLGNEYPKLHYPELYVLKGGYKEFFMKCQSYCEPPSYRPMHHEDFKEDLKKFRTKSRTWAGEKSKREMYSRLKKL

[3] = target: T3, Neutrophil elastase (Homo sapiens) (UniProt P08246); test: Inhibition of recombinant HNE (unknown origin) at <50 uM using N-methylsuccinyl-Ala-Ala-Pro-Val-7-amino-4-methylcoumarin, as a substrate measured every 30 sec for 10 mins by fluorometric assay
T3 sequence (whole entry): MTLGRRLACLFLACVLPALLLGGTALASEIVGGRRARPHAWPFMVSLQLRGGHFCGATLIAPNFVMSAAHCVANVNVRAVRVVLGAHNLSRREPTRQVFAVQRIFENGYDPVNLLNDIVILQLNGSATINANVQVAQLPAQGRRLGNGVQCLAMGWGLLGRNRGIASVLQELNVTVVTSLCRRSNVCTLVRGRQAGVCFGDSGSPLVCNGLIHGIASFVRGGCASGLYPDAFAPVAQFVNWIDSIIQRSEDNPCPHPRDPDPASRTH

[4] = target: T4, M-phase inducer phosphatase 2 (Homo sapiens, UniProt P30305)
T4 sequence (P30305 whole entry): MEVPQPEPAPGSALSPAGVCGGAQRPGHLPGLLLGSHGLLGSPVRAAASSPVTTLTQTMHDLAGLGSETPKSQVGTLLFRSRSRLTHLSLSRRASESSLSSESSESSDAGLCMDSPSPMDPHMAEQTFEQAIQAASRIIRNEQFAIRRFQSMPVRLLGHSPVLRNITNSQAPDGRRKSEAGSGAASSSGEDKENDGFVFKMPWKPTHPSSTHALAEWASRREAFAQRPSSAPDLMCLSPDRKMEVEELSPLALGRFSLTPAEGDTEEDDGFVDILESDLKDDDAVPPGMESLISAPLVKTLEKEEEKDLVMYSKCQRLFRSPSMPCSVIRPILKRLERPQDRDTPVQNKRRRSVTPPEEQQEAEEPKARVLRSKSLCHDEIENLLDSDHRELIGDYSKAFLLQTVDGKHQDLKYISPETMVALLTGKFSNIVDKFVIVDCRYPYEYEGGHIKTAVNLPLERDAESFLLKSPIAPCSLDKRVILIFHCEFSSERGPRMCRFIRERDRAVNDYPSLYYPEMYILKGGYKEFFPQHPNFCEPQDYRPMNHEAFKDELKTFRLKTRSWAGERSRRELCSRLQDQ
Description: Inhibition of recombinant Cdc25B (unknown origin) using OMFP as substrate measured every 30 sec for 10 mins by fluorometric assay

[5] = target: T5, M-phase inducer phosphatase 2 (Homo sapiens) (UniProt P30305); test: Inhibition of recombinant Cdc25B (unknown origin) at <50 uM using OMFP as substrate measured every 30 sec for 10 mins by fluorometric assay
T5 sequence (whole entry): T4 sequence (P30305 whole entry)

THP-1 [6] = test: Cytotoxicity against human THP1 cells assessed as reduction in cell viability incubated for 24 hrs by CellTiter-Glo luminescent cell viability assay; type: functional, cell-based; settings: THP-1, 24 h
MONO-MAC-6 [7] = test: Cytotoxicity against human MONO-MAC-6 cells assessed as reduction in cell viability incubated for 24 hrs by CellTiter-Glo luminescent cell viability assay; type: functional, cell-based; settings: MONO-MAC-6, 24 h
HL-60 [8] = test: Cytotoxicity against human HL60 cells assessed as reduction in cell viability incubated for 24 hrs by CellTiter-Glo luminescent cell viability assay; type: functional, cell-based; settings: HL-60, 24 h
U-937 [9] = test: Cytotoxicity against human U937 cells assessed as reduction in cell viability incubated for 24 hrs by CellTiter-Glo luminescent cell viability assay; type: functional, cell-based; settings: U-937, 24 h
SW982 [10] = test: Cytotoxicity against human SW982 cells assessed as reduction in cell viability at <50 uM incubated for 24 hrs by CellTiter-Glo luminescent cell viability assay; type: functional, cell-based
LS174T [11] = test: Cytotoxicity against human LS174T cells assessed as reduction in cell viability at <50 uM incubated for 24 hrs by CellTiter-Glo luminescent cell viability assay; type: functional, cell-based
A549 [12] = test: Cytotoxicity against human A549 cells assessed as reduction in cell viability at <50 uM incubated for 24 hrs by CellTiter-Glo luminescent cell viability assay; type: functional, cell-based
PBMC [13] = test: Cytotoxicity against human PBMC cells assessed as reduction in cell viability at <50 uM incubated for 24 hrs by CellTiter-Glo luminescent cell viability assay; type: cell-based
[14] = target: T6, M-phase inducer phosphatase 1 (Homo sapiens, UniProt P30304)
T6 sequence (P30304 whole entry): T2 sequence (whole entry)
Description: Inhibition of recombinant Cdc25A (unknown origin) using OMFP as substrate measured every 30 sec for 10 mins by fluorometric assay

Jurkat [15] = test: cells; settings: Homo sapiens, 24 h
Description: Cytotoxicity against human Jurkat cells assessed as reduction in cell viability incubated for 24 hrs by CellTiter-Glo luminescent cell viability assay

MCF7 [16] = test: Cytotoxicity against human MCF7 cells assessed as reduction in cell viability at <50 uM incubated for 24 hrs by CellTiter-Glo luminescent cell viability assay; type: functional, cell-based
SW982 [17] = test: Cytotoxicity against human SW982 cells assessed as reduction in cell viability incubated for 24 hrs by CellTiter-Glo luminescent cell viability assay; type: functional, cell-based; settings: SW982, 24 h
MCF7 [18] = test: Cytotoxicity against human MCF7 cells assessed as reduction in cell viability incubated for 24 hrs by CellTiter-Glo luminescent cell viability assay; type: functional, cell-based; settings: MCF7, 24 h
LS174T [19] = test: Cytotoxicity against human LS174T cells assessed as reduction in cell viability incubated for 24 hrs by CellTiter-Glo luminescent cell viability assay; type: functional, cell-based
A549 [20] = test: Cytotoxicity against human A549 cells assessed as reduction in cell viability incubated for 24 hrs by CellTiter-Glo luminescent cell viability assay; type: functional, cell-based; settings: A549, 24 h
PBMC [21] = test: Cytotoxicity against human PBMC cells assessed as reduction in cell viability incubated for 24 hrs by CellTiter-Glo luminescent cell viability assay; type: cell-based; settings: read-out: IC50
[22] = target: T7, Dual specificity mitogen-activated protein kinase kinase 7 (Homo sapiens, UniProt O14733); test: biochemical
T7 sequence (O14733 whole entry): T1 sequence (whole entry)
Description: Binding affinity to MKK7 (unknown origin) expressed in HEK293 cells assessed as dissociation constant by kinomescan method

THP-1 [23] = test: Cytotoxicity against human THP1 cells assessed as reduction in cell viability at <50 uM incubated for 24 hrs by CellTiter-Glo luminescent cell viability assay; type: functional, cell-based
MONO-MAC-6 [24] = test: Cytotoxicity against human MONO-MAC-6 cells assessed as reduction in cell viability at <50 uM incubated for 24 hrs by CellTiter-Glo luminescent cell viability assay; type: functional, cell-based
HL-60 [25] = test: Cytotoxicity against human HL60 cells assessed as reduction in cell viability at <50 uM incubated for 24 hrs by CellTiter-Glo luminescent cell viability assay; type: functional, cell-based
Jurkat [26] = test: Cytotoxicity against human Jurkat cells assessed as reduction in cell viability at <50 uM incubated for 24 hrs by CellTiter-Glo luminescent cell viability assay; type: functional, cell-based
U-937 [27] = test: Cytotoxicity against human U937 cells assessed as reduction in cell viability at <50 uM incubated for 24 hrs by CellTiter-Glo luminescent cell viability assay; type: functional, cell-based
Neutrophil elastase = target: T8, Neutrophil elastase (Homo sapiens, UniProt P08246); test: Inhibition of recombinant HNE (unknown origin) using N-methylsuccinyl-Ala-Ala-Pro-Val-7-amino-4-methylcoumarin, as a substrate measured every 30 sec for 10 mins by fluorometric assay
T8 sequence (P08246 whole entry): T3 sequence (whole entry)

SMILES	Activity [1]	inhibition [3]	IC50 [4]	inhibition [1]	inhibition [5]	IC50 (MONO-MAC-6 [7])	IC50 (HL-60 [8])	IC50 (U-937 [9])	IC50 [14]	IC50 (Jurkat [15])	other results
CC(C)(C)[C@H]1CC[C@H](CC2=C(O)C(=O)c3ccccc3C2=O)CC1 [BUPARVAQUONE]	inactive	inactive	12 µM	–	–	–	–	–	–	–	inhibition [2]: inactive
O=C1C(Cl)=C(NCCCN2CCOCC2)C(=O)c2ccccc21	–	inactive	–	inactive	inactive	–	–	–	–	–	inhibition [2]: inactive
COC1=C(C)C(=O)c2ccccc2C1=O	inactive	inactive	33.1 µM	–	–	18.4 µM	20.4 µM	35.1 µM	22.3 µM	49.2 µM	IC50 (THP-1 [6]): 47.3 µM; Activity (SW982 [10]): inactive; Activity (LS174T [11]): inactive; Activity (A549 [12]): inactive; Activity (PBMC [13]): Non-Toxic
COc1ccc(OC)c2c1C(=O)C=C(SCCC(=O)O)C2=O	inactive	inactive	7.8 µM	–	–	12.8 µM	28.7 µM	26.6 µM	26 µM	21.3 µM	IC50 (THP-1 [6]): 33.3 µM; Activity (SW982 [10]): inactive; Activity (MCF7 [16]): inactive; Activity (LS174T [11]): inactive; Activity (A549 [12]): inactive; Activity (PBMC [13]): Non-Toxic
O=C(O)c1cccc(NC2=C(Cl)C(=O)c3ccccc3C2=O)c1	–	inactive	24.3 µM	–	–	13.4 µM	12.1 µM	7.6 µM	32.9 µM	8.2 µM	IC50 (THP-1 [6]): 8.6 µM; IC50 (SW982 [17]): 5.5 µM; IC50 (MCF7 [18]): 28.5 µM; IC50 (LS174T [19]): 11.7 µM; IC50 (A549 [20]): 26.2 µM; IC50 (PBMC [21]): 37.9 µM; Kd [22]: 1.9 µM
CC(C)=CCC1=C(O)C(=O)c2ccccc2C1=O [LAPACHOL]	inactive	inactive	42.7 µM	–	–	–	–	–	33.2 µM	–	Activity (THP-1 [23]): inactive; Activity (MONO-MAC-6 [24]): inactive; Activity (HL-60 [25]): inactive; Activity (SW982 [10]): inactive; Activity (Jurkat [26]): inactive; Activity (U-937 [27]): inactive; Activity (MCF7 [16]): inactive; Activity (LS174T [11]): inactive; Activity (A549 [12]): inactive; Activity (PBMC [13]): Non-Toxic
O=C1C(Cl)=C(NCCCO)C(=O)c2ccccc21	–	inactive	–	inactive	inactive	–	–	–	45.7 µM	–	–
O=C1C(Cl)=C(NCCO)C(=O)c2ccccc21	–	inactive	–	inactive	inactive	–	–	–	45.3 µM	–	–
O=C(O)CNC1=C(Cl)C(=O)c2ccccc2C1=O	–	inactive	–	inactive	inactive	–	–	–	36 µM	–	–
COC(=O)c1ccc(NC2=C(OC)C(=O)c3ccccc3C2=O)cc1	–	inactive	–	inactive	inactive	–	–	–	–	–	inhibition [2]: inactive
CC(SC1=CC(=O)c2ccccc2C1=O)C(=O)O (stereo not given)	–	–	5.2 µM	–	–	43.6 µM	20.5 µM	34.6 µM	5.4 µM	17.9 µM	IC50 (Neutrophil elastase): 36.1 µM; IC50 (SW982 [17]): 21.1 µM; IC50 (MCF7 [18]): 27.9 µM; IC50 (PBMC [21]): 23.8 µM; Kd [22]: 2.1 µM

— ChEMBL document CHEMBL4311981, “Synthesis, anticancer activity, and molecular modeling of 1,4-naphthoquinones that inhibit MKK7 and Cdc25” (Eur J Med Chem, 2019)
